This is an account of results in patent publication US12281329B2, “Compositions and methods for immune cell modulation in adoptive immunotherapies” (Fate Therapeutics, Inc., priority 2016, dated 2025).

In one assay the test system is primary AML blasts. In words: NK cell cytotoxicity against primary AML blasts. Format: cell-based, human. To be noted: multi-day IL-15 + GSK3i NK cells vs overnight primed. The procedure:
(§1) NK Cell Cytotoxicity Assay: Cytotoxicity was determined using a flow cytometry based method based on a previously published method (Kim, et al. J Immunol Methods. 2007 Aug. 31; 325(1-2): 51-66). NK cells were co-cultured with e450-proliferation dye-labelled targets for 4 hours. CellEvent™ Caspase-3/7 Green Flow Cytometry Assay Kit (Lifer Technologies) was used to assay for cell death among target cells, and samples were read on a BD LSRFortessa cytometer. Killing of SKOV-3 targets was quantified using the Incucyte Zoom instrument. SKOV-3 cells were transiently transduced with NucLight-Red BacMam reagent (Essen Biosciences) and co-cultured with the indicated NK cell populations for 74 hours, with images taken on two hour intervals. Caspase 3/7 activity was monitored to indicate target cells undergoing apoptosis using the CellEvent™ Caspase-3/7 Green Detection Reagent. The number of target cells was normalized to SKOV-3 cells cultured alone, and targets undergoing apoptosis were quantified based on caspase 3/7 activity.
Cytotoxicity of CD3/CD19 depleted PBMC cultured multiple days with IL-15 and GSK3i (GSK3i modulated NK cells) versus overnight primed NK cells against primary AML blasts were also compared. Percent specific killing of primary AML blasts from multiple patients was measured by flow cytometry-based cytotoxicity assay.

Assay [1] relates to NK cells. In words: Sorted NK cell populations (CD57/NKG2C) cultured with CHIR99021: maturation. Format: cell-based, human. To be noted: 7 day. As for the experimental part:
NK Cell Sorting: CD3/CD19 depleted PBMC were labelled with 10 uM e450 proliferation dye (eBioscience) and stained with FITC-conjugated anti-CD57, PE-Conjugated anti-NKG2C, APC-conjugated anti-CD56, and Percp-Cy5.5-conjugated anti-CD3 antibodies (BD Biosciences and R&D Systems). Four populations of CD3-CD56+NK cells were sorted according to the expression of CD57 and NKG2C; CD57+NKG2C−, CD57+NKG2C+, CD57-NKG2C+, and CD57-NKG2C−. Sorted NK cell populations were cultured at a 2:1 ratio of NK:monocytes in BO media with 10 ng/ml IL-15 and CHIR99021 or vehicle control. Stained but unsorted cells were cultured in parallel as a control.
CD3/CD19 depleted PBMC were labelled with e450 proliferation dye, and CD56+CD3− NK cells were sorted in bulk or were sorted into 4 populations based on expression of CD57 and NKG2C expression (FIG. 5A). Total, unfractionated, NK cells were cultured alongside CD57+NKG2C− (Q1), CD57+NKG2C+(Q2), CD57−NKG2C+(Q3), CD57−NKG2C− (Q4) sorted NK cells with either (1) cytokine (10 ng/ml IL15) and 5 μM CHIR99021, or (2) cytokine only with vehicle control (for example, DMSO only) (FIG. 5B) with autologous CD14+ monocytes in a 1:1 ratio of NK cells:monocytes. After the 7 day culture period, cultures of each sorted population were stained for flow cytometry and analyzed for proliferation and cell surface marker expression. […]

Assay [2] has as its system NK cells. The assay can be described thus: NK cell culture with modified K562 feeder cells: proliferation and subtype skewing. Format: cell-based, human. To be noted: 7 days.
Experimental: CD3/19 depleted PBMCs were cultured for 7 days with modified K562 feeder cells in the presence of DMSO (Vehicle), 0.1 uM GSK3i CHIR99021 alone (C), or a combination of 0.1 uM GSK3i CHIR99021, 40 nM MEKi PD0325901, and 1 nM Rapamycin (CPR).
In a further assay the test system is CD20+ Raji cells. The assay can be described thus: NK cell cytotoxicity assay, Raji target cells. To be noted: 4 hours; NK cells overnight IL-15 only or 7 days IL15 + GSK3i. Format: cell-based, human. The procedure: as §1
The ability of GSK3 inhibition to enhance cytotoxicity of NK cells isolated directly from donors was assessed using in vitro killing assays. […] After the target cells were incubated with the differently treated NK cells for 4 hours, the respective percentage of specific killing (target cell lysis) was calculated. […]

Assay [3] concerns NK cells. The assay can be described thus: NK cell intracellular cytokine staining after IL-12+IL-18 or K562 stimulation. Format: cell-based, human. To be noted: 7 days 10 ng/ml IL-15 + 5 uM CHIR99021; 4-hour IL12+IL18 or K562 stimulation; vs primed or 7 day IL15 only.
Experimental: NK Cell Intracellular Cytokine Staining: CD3/CD9 depleted PBMC were cultured for 7 days with 10 ng/ml IL-15 and 5 uM CHIR99021 or vehicle control. On culture day 7 cells were washed and cultured separately with IL-12 and IL-18 (long/ml and 50 ng/ml, respectively) (Life Technologies) or with K562 cells at a 1:1 ratio. Golgistop (BD Biosciences) was included in the culture media to facilitate intracellular detection of cytokines. After a 4 hour culture period, cells were stained for cell surface antigens and fixed prior to intracellular staining with antibodies to IFN-gamma and TNF-alpha (BD Biosciences). Staining was performed using the BD Cytofix/Cytoperm™ Kit according to the manufacturer's instructions.
Also analyzed was the effect of GSK3 inhibitor treatment to NK cell cytokine response. PBMC obtained directly from donors were cultured after CD3/CD9 depletion for 7 days with 10 ng/ml IL-15 and 5 uM CHIR99021, or with IL15 only. On day 7, cells were washed and cultured separately with IL-12 (long/ml) and IL-18 (50 ng/ml), or with K562 cells at a 1:1 ratio for stimulation. After a 4-hour culture period, cells were stained for cell surface antigens and fixed prior to intracellular staining with antibodies to IFNγ and TNFα, respectively.
The next assay has as its system K562 cells. In words: NK cell cytotoxicity assay, K562 target cells. Format: cell-based. To be noted: 4 hours; NK cells overnight 10 ng/mL IL-15 only or 7 day IL-15 + 5 μM CHIR99021. The procedure:
as §1
The ability of GSK3 inhibition to enhance cytotoxicity of NK cells isolated directly from donors was assessed using in vitro killing assays. […] depleted PBMC population was treated overnight with 10 ng/mL IL-15 only (primed), or a 7 day culture combination of 10 ng/mL IL-15 and 5 μM CHIR99021. The target cells for the killing assays included K562 cells, CD20+ Raji cells, HER2+ SKOV3 cells and HER2+A549 cells. The E:T (Effector:Target) ratio applied to each assay ranged from 0.1, 0.5, 1, 5 to 10. After the target cells were incubated with the differently treated NK cells for 4 hours, the respective percentage of specific killing (target cell lysis) was calculated. […] Raji cells are less prone to NK mediated cytotoxicity.
The ability of STING agonist to enhance cytotoxicity of GSK3i multiday modulated NK cells was assessed using in vitro killing assays. […]

Regarding `Cc1c[nH]c(-c2cnc(NCCNc3ccc(C#N)cn3)nc2-c2ccc(Cl)cc2Cl)n1` [CHIR99021], the “percent specific killing of primary AML blasts” value with primary AML blasts is “highly and consistently effective”. Also, the “expression of CD57 in Q3 and Q4 sorted cells (CD57− before culturing)” value with NK cells [1] (10 ng/ml IL15 + 5 μM CHIR99021) is reported as “upregulated”. For the same compound, in the assay with NK cells [1] (10 ng/ml IL15 + 5 μM CHIR99021, unsorted), the “CD57 expression in the total NK cells” value is on record as “significant increase”. The “proliferation of the activated NK cells overall” value in the assay with NK cells [2] (K562 feeder modified to express IL21 and 41BBL, vs vehicle) is “increased”. Also, in the assay with NK cells [2] (modified K562 feeder cells, vs vehicle control), the “number of CD57+NK cells” value is listed as “highest”. Moreover, the “E:T50, Raji cells” value in the assay with CD20+ Raji cells is listed as 1-2. For the same compound, in the assay with NK cells [3], the “IFNγ production in NK cells” value is “enhanced” and the “TNFα production in NK cells” value is given as “enhanced”. For the same compound, the “E:T50 (E:T ratio when there is 50% of target cell lysis), K562 killing assay” value in the assay with K562 cells is “about 1”.
